The nature of data set [1]: Cytotoxicity against mouse Neuro2a cells after 24 hrs by MTT assay. The format is cell-based. The settings on record: N2a. For orientation: Tetrazolium assays rely on reduction of a dye to a coloured formazan, in cell work by metabolically active cells.
For data set [2], the system named is Biomphalaria glabrata. Kind of data set: Molluscicidal activity against Biomphalaria glabrata at 10 ppm. The following applies: in vivo. The format is organism-based.
Data set [3] can be described thus: Ichthyotoxicity to gold fish. The format is organism-based. The settings on record: carassius auratus, in vivo; read-out: LD50 (the source's name).
A short description of data set [4]: Toxicity in Artemia salina. The settings on record: in vivo, read-out: LD50 (the source's name). The class given is organism-based.

As a reminder, the IC50 is the concentration that gives 50% inhibition. `CCCCCCC[C@@H](C/C=C/CCC(=O)N(C)C/C(=C/Cl)c1cccc(C)c1O)OC` [MALYNGAMIDE M] had an IC50 in data set [1] above 20 µM.

In the case of `CCCCCCC[C@@H](C/C=C/CCC(=O)NCCc1c[nH]c2ccccc12)OC` [HERMITAMIDE B], in data set [2], the Activity entry is recorded as “Not Active”. In addition, the LC50 in data set [3] was 25 µM; in data set [4], 18 µM. Moreover, in data set [1], 5.5 µM corresponded to half-maximal inhibition (IC50).

For the compound `CCCCCCC[C@@H](C/C=C/CCC(=O)NCCc1ccccc1)OC` [HERMITAMIDE A], in data set [2], the Activity entry is reported as “Not Active”. In addition, the LC50 in data set [3] came out at 19 µM; in data set [4], 5 µM. Besides, in data set [1], the midpoint of inhibition, the IC50, lay at 2.2 µM.

Compound `CCCCCCC[C@@H](C/C=C/CCC(=O)N(C)C/C(=C/Cl)[C@]12O[C@H]1CC=C(C)C2=O)OC` [MALYNGAMIDE N] yielded an IC50 in data set [1] of 12 µM.

For the origin of these results see ChEMBL document CHEMBL1142642, “Hermitamides A and B, toxic malyngamide-type natural products from the marine cyanobacterium Lyngbya majuscula” (J Nat Prod, 2000).
